T cell responses data for 31 substances are collected here from publication PMC5701947, “β1-Adrenergic Receptor Contains Multiple IA^k and IE^k Binding Epitopes That Induce T Cell Responses with Varying Degrees of Autoimmune Myocarditis in A/J Mice” (Frontiers in Immunology, 2017).

This test deals with T cells (lymph node cells/splenocytes from immunized animals). Nature of the test: T cell proliferation assay ([3H]-thymidine). The settings on record: fold vs medium control. In kind it is cell-based, A/J mice. On the procedure: At termination, lymph nodes (maxillary, mandibular, axillary, inguinal, and popliteal) and spleens were harvested from immunized animals to prepare single cell suspensions. Similarly, splenocytes were prepared from naive animals. After lysing the erythrocytes and washing, cell pellets were suspended in RPMI medium containing 10% fetal bovine serum, 1 mM sodium pyruvate, 4 mM L-glutamine, 1 × each of non-essential amino acids and vitamin mixture, and 100 U/ml penicillin–streptomycin (Lonza, Walkersville, MD, USA; hereafter called growth medium). In some experiments, CD4 T cells and CD8 T cells were enriched to a purity of ~95% by negative selection based on magnetic separation using IMAG (BD Biosciences, San Jose, CA, USA) ([31]). To stimulate CD4 and CD8 T cells, syngeneic naive irradiated splenocytes loaded with peptides were used as antigen-presenting cells at a ratio of 1:1. Cells were stimulated at a density of ~5 × 10^6 cells/ml in triplicates with or without the immunizing peptides (0–100 µg/ml) in growth medium. RNase 43–56 or HEL 46–61 were used as irrelevant controls. After 2 days, cells were pulsed with tritiated ^3[H]-thymidine (1 μCi/well; MP Biomedicals, Santa Ana, CA, USA), and 16 h later, proliferative responses were measured as counts per minute (cpm) using a Wallac liquid scintillation counter (Perkin Elmer, Waltham, MA, USA) ([26], [28], [30]).

Where [1] appears, read: 10 μg/ml, animals immunized with pool II.
[2] abbreviates: 100 μg/ml, animals immunized with pool II.
Where [3] appears, read: 10 μg/ml, animals immunized with pool I.
Setting [4] is: 100 μg/ml, animals immunized with pool I.
Where [5] appears, read: 10 μg/ml, animals immunized with pool III.
Where [6] appears, read: 100 μg/ml, animals immunized with pool III.
The mark [7] stands for this setting: 10 μg/ml, animals immunized with pool V.
[8] abbreviates: 100 μg/ml, animals immunized with pool V.
[9] abbreviates: 10 μg/ml, animals immunized with pool VI.
[10] abbreviates: 100 μg/ml, animals immunized with pool VI.
The mark [11] stands for this setting: 10 μg/ml, animals immunized with pool VII.
[12] abbreviates: 100 μg/ml, animals immunized with pool VII.

As to “BAR 101-120: 20-mer of mouse β1AR peptide library (ASADLVMGLLVVPFGATIVV; UniProt P34971 101-120, looked up, fragment)”, the T cell responses is 1.01 fold under setting [1] and 1.02 fold under setting [2].

Take “β1AR 1-20: 20-mer of mouse β1AR peptide library (MGAGALALGASEPCNLSSAA; UniProt P34971 1-20, looked up, fragment)”: the T cell responses came out at 1.52 fold under setting [3] and 1.90 fold under setting [4].

With “β1AR 11-30: 20-mer of mouse β1AR peptide library (SEPCNLSSAAPLPDGAATAA; UniProt P34971 11-30, looked up, fragment)”, the T cell responses by setting is: under setting [3], 1.84 fold; under setting [4], 2.06 fold.

Consider “β1AR 21-40: 20-mer of mouse β1AR peptide library (PLPDGAATAARLLVLASPPA; UniProt P34971 21-40, looked up, fragment)”, for which the T cell responses is, setting by setting: under setting [3], 1.33 fold; under setting [4], 1.43 fold.

For the substance “β1AR 31-50: 20-mer of mouse β1AR peptide library (RLLVLASPPASLLPPASEGS; UniProt P34971 31-50, looked up, fragment)”, the T cell responses reads like this: under setting [3], 0.97 fold; under setting [4], 1.30 fold.

Turning to “β1AR 41-60: 20-mer of mouse β1AR peptide library (SLLPPASEGSAPLSQQWTAG; UniProt P34971 41-60, looked up, fragment)”, the T cell responses reads like this: under setting [3], 0.84 fold; under setting [4], 1.10 fold.

“β1AR 51-70: 20-mer of mouse β1AR peptide library (APLSQQWTAGMGLLLALIVL; UniProt P34971 51-70, looked up, fragment)”: the T cell responses is 1.10 fold under setting [1] and 1.38 fold under setting [2].

As to “β1AR 71-90: 20-mer of mouse β1AR peptide library (LIVVGNVLVIVAIAKTPRLQ; UniProt P34971 71-90, looked up, fragment)”, the T cell responses under setting [1] is recorded as 2.71 fold and the T cell responses under setting [2] was found to be 3.78 fold.

Regarding “β1AR 81-100: 20-mer of mouse β1AR peptide library (VAIAKTPRLQTLTNLFIMSL; UniProt P34971 81-100, looked up, fragment)”, the T cell responses reads like this: under setting [1], 1.65 fold; under setting [2], 2.36 fold.

Consider “β1AR 91-110: 20-mer of mouse β1AR peptide library (TLTNLFIMSLASADLVMGLL; UniProt P34971 91-110, looked up, fragment)”, for which the T cell responses reads like this: under setting [1], 1.67 fold; under setting [2], 1.93 fold.

Regarding “β1AR 111-130: 20-mer of mouse β1AR peptide library (VVPFGATIVVWGRWEYGSFF; UniProt P34971 111-130, looked up, fragment)”, the T cell responses came out at 1.97 fold under setting [5] and 2.49 fold under setting [6].

As to “β1AR 121-140: 20-mer of mouse β1AR peptide library (WGRWEYGSFFCELWTSVDVL; UniProt P34971 121-140, looked up, fragment)”, the T cell responses is, setting by setting: under setting [5], 1.08 fold; under setting [6], 1.26 fold.

Turning to “β1AR 131-150: 20-mer of mouse β1AR peptide library (CELWTSVDVLCVTASIETLC; UniProt P34971 131-150, looked up, fragment)”, the T cell responses runs as follows: under setting [5], 1.28 fold; under setting [6], 1.72 fold.

As to “β1AR 151-170: 20-mer of mouse β1AR peptide library (VIALDRYLAITSPFRYQSLL; UniProt P34971 151-170, looked up, fragment)”, the T cell responses under setting [5] is 2.24 fold and the T cell responses under setting [6] turned out to be 2.43 fold.

As to “β1AR 161-180: 20-mer of mouse β1AR peptide library (TSPFRYQSLLTRARARALVC; UniProt P34971 161-180, looked up, fragment)”, the T cell responses runs as follows: under setting [5], 1.03 fold; under setting [6], 1.29 fold.

For the substance “β1AR 221-240: 20-mer of mouse β1AR peptide library (NRAYAIASSVVSFYVPLCIM; UniProt P34971 221-240, looked up, fragment)”, the T cell responses turned out to be 1.18 fold under setting [7] and 1.01 fold under setting [8].

Consider “β1AR 231-250: 20-mer of mouse β1AR peptide library (VSFYVPLCIMAFVYLRVFRE; UniProt P34971 231-250, looked up, fragment)”, for which the T cell responses by setting is: under setting [7], 1.42 fold; under setting [8], 1.85 fold.

“β1AR 241-260: 20-mer of mouse β1AR peptide library (AFVYLRVFREAQKQVKKIDS; UniProt P34971 241-260, looked up, fragment)” showed a T cell responses under setting [7] of 1.52 fold and a T cell responses under setting [8] of 2.02 fold.

As for “β1AR 251-270: 20-mer of mouse β1AR peptide library (AQKQVKKIDSCERRFLGGPA; UniProt P34971 251-270, looked up, fragment)”, the T cell responses turned out to be 1.12 fold under setting [7] and 1.81 fold under setting [8].

Regarding “β1AR 261-280: 20-mer of mouse β1AR peptide library (CERRFLGGPARPPSPEPSPS; UniProt P34971 261-280, looked up, fragment)”, the T cell responses reads like this: under setting [7], 0.86 fold; under setting [8], 1.32 fold.

Regarding “β1AR 271-290: 20-mer of mouse β1AR peptide library (RPPSPEPSPSPGPPRPADSL; UniProt P34971 271-290, looked up, fragment)”, the T cell responses runs as follows: under setting [9], 1.05 fold; under setting [10], 1.13 fold.

Take “β1AR 281-300: 20-mer of mouse β1AR peptide library (PGPPRPADSLANGRSSKRRP; UniProt P34971 281-300, looked up, fragment)”: the T cell responses was found to be 0.92 fold under setting [9] and 0.93 fold under setting [10].

As for “β1AR 291-310: 20-mer of mouse β1AR peptide library (ANGRSSKRRPSRLVALREQK; UniProt P34971 291-310, looked up, fragment)”, the T cell responses reads like this: under setting [9], 0.87 fold; under setting [10], 1.66 fold.

“β1AR 301-320: 20-mer of mouse β1AR peptide library (SRLVALREQKALKTLGIIMG; UniProt P34971 301-320, looked up, fragment)” showed a T cell responses under setting [9] of 2.03 fold and a T cell responses under setting [10] of 1.93 fold.

For the substance “β1AR 311-330: 20-mer of mouse β1AR peptide library (ALKTLGIIMGVFTLCWLPFF; UniProt P34971 311-330, looked up, fragment)”, the T cell responses is given as 1.30 fold under setting [9] and 1.21 fold under setting [10].

As to “β1AR 321-340: 20-mer of mouse β1AR peptide library (VFTLCWLPFFLANVVKAFHR; UniProt P34971 321-340, looked up, fragment)”, the T cell responses by setting is: under setting [11], 3.23 fold; under setting [12], 2.21 fold.

“β1AR 331-350: 20-mer of mouse β1AR peptide library (LANVVKAFHRDLVPDRLFVF; UniProt P34971 331-350, looked up, fragment)” gave a T cell responses under setting [11] of 1.05 fold and a T cell responses under setting [12] of 1.49 fold.

In the case of “β1AR 341-360: 20-mer of mouse β1AR peptide library (DLVPDRLFVFFNWLGYANSA; UniProt P34971 341-360, looked up, fragment)”, the T cell responses runs as follows: under setting [11], 1.02 fold; under setting [12], 1.47 fold.

“β1AR 351-370: 20-mer of mouse β1AR peptide library (FNWLGYANSAFNPIIYCRSP; UniProt P34971 351-370, looked up, fragment)”: the T cell responses is 1.86 fold under setting [11] and 1.82 fold under setting [12].

Take “β1AR 361-380: 20-mer of mouse β1AR peptide library (FNPIIYCRSPDFRKAFQRLL; UniProt P34971 361-380, looked up, fragment)”: the T cell responses by setting is: under setting [11], 2.06 fold; under setting [12], 1.82 fold.

As for “β1AR 371-390: 20-mer of mouse β1AR peptide library (DFRKAFQRLLCCARRAACRR; UniProt P34971 371-390, looked up, fragment)”, the T cell responses is, setting by setting: (10 μg/ml, animals immunized with pool VIII) 1.14 fold; (100 μg/ml, animals immunized with pool VIII) 0.60 fold.
